Reference: patent US12486229B2, “Indole derivative and application thereof” (SHANGHAI MEDICILON INC., priority 2020, dated 2025)

System: DSS induced ulcerative colitis in mice
Experiment: DSS induced ulcerative colitis in mice
Assay type: in vivo
Parameters: key to Total stool scores: sum of shape (1-3) and bleeding (1-3) levels; normal = 1 each; Colon length: unit not given here
Conditions: for Colon weight / Effect on blood stool and loose stool compared with model group / Colon length: day 9; for Colon weight compared with model group: P<0.05
Experimental: Molecular weight of DSS dextran sodium sulfate: 36,000 to 50,000, From MP Biomedical Company.
Preparation of molding agent: preparation of 3.5% DSS: 49 g DSS plus 1,400 mL high-temperature sterilized water.
Source of SPF male C57BL/6 mice: Beijing Weitong Lihua Experimental Animal Technology Co., Ltd. • Animal age at the beginning of the experiment: 6 to 8 weeks; • Animal weight at the beginning of the experiment: 22 to 25 g; • Adaptation time: 3 to 5 days;
The mice were divided into groups according to their weight, 10 mice in each group. The mice were administrated once a day by gavage (or blank) according to the following Table 4.
Animals were given 3.5% DSS solution for free drinking water modeling (the day of modeling was recorded as day 1), and the modeling agent was replaced once every two days for 7 consecutive days, and then (day 8) 3.5% DSS was replaced with ordinary drinking water for another 1 day.
• Preparation of solvent 1: 0.66 mL DMSO, 1.32 mL Solutol and 11.22 mL Saline were mixed to prepare 13.2 mL of solvent 1; • Preparation of solvent 2: 0.3 mL DMSO, 0.6 mL Solutol and 5.1 mL Saline were mixed to prepare 6 mL of solvent 2; • Preparation of solution of compound of Example 3: 39.6 mg of compound of Example 3 was dissolved in 13.2 mL of solvent 1 to obtain the solution of compound 1 of Example 3, the solution 1 of compound of Example 3 was diluted with solvent 1 to prepare the solution of compound of Example 3 with concentrations of 2 mg/mL, 1 mg/mL, and 0.6 mg/mL; • Etrasimod solution: 6 mg of Etrasimod was dissolve in 6 mL of solvent 2 to obtain Etrasimod solution; • Ozanimod solution: 12 mg of […] was dissolved in 6 mL solvent 2 to obtain Ozanimod solution; • Note: Prepare once every two days, and store in refrigerator at 4° C.
Wherein, the purity of compound of Example 3 was 99.74%, Ozanimod and Etrasimod were prepared by the method described in Example 8, and the purities were 99.78% and 98.47% respectively.
The mouse stool was observed on its shape, bleeding condition every two days, and scored. Scoring criteria for stool condition: shape: normal (level 1), soft stool (level 2), and loose stool (level 3); traits: normal (level 1), faint redness (level 2), and bloody stool visible to the unaided eye (level 3).
After the last administration (8 consecutive days), the animals were dissected on the next day (day 9), the colon was separated, the whole colon was photographed, and the colon length was measured. Then the colon was cut longitudinally along the mesenteric side to remove the contents, which was weighed and observed on the integrity of the colonic mucosa. The colon was then fixed in 10% formalin.

[1] = 10 mg/kg oral gavage once a day for 8 days
[2] = Day 1, 10 mg/kg oral gavage once a day
[3] = Day 2, 10 mg/kg oral gavage once a day
[4] = Day 3, 10 mg/kg oral gavage once a day
[5] = Day 4, 10 mg/kg oral gavage once a day
[6] = Day 5, 10 mg/kg oral gavage once a day
[7] = Day 6, 10 mg/kg oral gavage once a day
[8] = Day 7, 10 mg/kg oral gavage once a day
[9] = Day 8, 10 mg/kg oral gavage once a day
[10] = Day 9, 10 mg/kg oral gavage once a day
[11] = 6 mg/kg oral gavage once a day for 8 days
[12] = 20 mg/kg oral gavage once a day for 8 days
[13] = 30 mg/kg oral gavage once a day for 8 days
[14] = Day 7, 6 mg/kg oral gavage once a day
[15] = Day 7, 20 mg/kg oral gavage once a day
[16] = Day 7, 30 mg/kg oral gavage once a day
[17] = Day 8, 6 mg/kg oral gavage once a day
[18] = Day 8, 20 mg/kg oral gavage once a day
[19] = Day 8, 30 mg/kg oral gavage once a day
[20] = Day 9, 6 mg/kg oral gavage once a day
[21] = Day 9, 20 mg/kg oral gavage once a day
[22] = Day 9, 30 mg/kg oral gavage once a day

For O=C(O)C[C@H]1CCc2c1[nH]c1ccc(OCc3ccc(C4CCCC4)c(C(F)(F)F)c3)cc21 [Etrasimod, reference compound], the Colon weight [1] was 0.169 ± 0.01 g, the “Colon weight compared with model group” value (10 mg/kg) was “statistically significant difference compared with that of the model group” and the “Effect on blood stool and loose stool compared with model group” value (“Effect … compared with model group” below) (10 mg/kg) was “had not significant improvement”. For the same compound, the Weight [2] was 21.0 ± 0.26 g, the Weight [3] was 21.6 ± 0.24 g and the Weight [4] was 21.4 ± 0.25 g. For the same compound, the Weight [5] was 21.7 ± 0.29 g, the Weight [6] was 21.2 ± 0.27 g and the Weight [7] was 20.5 ± 0.22 g. It also gave a Total stool scores [8] of 6.0 ± 0, a Weight [8] of 19.2 ± 0.26 g and a Total stool scores [9] of 5.9 ± 0.11. The Weight [9] was 18.0 ± 0.3 g, the Total stool scores [10] was 5.6 ± 0 and the Weight [10] was 16.6 ± 0.26 g.

In the case of O=C(O)CCn1ccc2cc(OCc3ccc(C4CCCC4)c(C(F)(F)F)c3)cc(Cl)c21 [Compound of Example 3, 3-(7-chlorine-5-((4-cyclopentyl-3-(trifluoromethyl)benzyl)oxy)-1H-indole-1-yl)propionic acid], the Colon length [11] is reported as 39.061 ± 1.17, the Colon weight [11] is reported as 0.164 ± 0.01 g and the “Colon weight compared with model group” value (6 mg/kg) is reported as “statistically significant difference compared with that of the model group”. For the same compound, the “Effect … compared with model group” value (6 mg/kg) was “significantly improving blood stool and loose stool”, the Colon length [1] was 39.638 ± 0.76 and the Colon weight [1] was 0.164 ± 0.01 g. For the same compound, the “Colon weight compared with model group” value (10 mg/kg) was “statistically significant difference compared with that of the model group”, the “Effect … compared with model group” value (10 mg/kg) was “significantly improving blood stool and loose stool” and the “Colon length compared with model group” value (20 mg/kg) was “longer than that of the model group”. The Colon length [12] was 44.892 ± 1.83, the Colon weight [12] was 0.163 ± 0.01 g and the “Colon weight compared with model group” value (20 mg/kg) was “statistically significant difference compared with that of the model group”. For the same compound, the “Effect … compared with model group” value (20 mg/kg) was “significantly improving blood stool and loose stool”, the “Colon length compared with model group” value (30 mg/kg) was “longer than that of the model group” and the Colon length [13] was 41.311 ± 1.25. For the same compound, the Colon weight [13] was 0.162 ± 0.01 g, the “Effect … compared with model group” value (30 mg/kg) was “significantly improving blood stool and loose stool” and the Weight (Day 1, 6 mg/kg oral gavage once a day) was 21.3 ± 0.26 g. It also gave a Weight [2] of 21.9 ± 0.2 g, a Weight (Day 1, 20 mg/kg oral gavage once a day) of 21.2 ± 0.34 g and a Weight (Day 1, 30 mg/kg oral gavage once a day) of 21.5 ± 0.17 g. It also gave a Weight (Day 2, 6 mg/kg oral gavage once a day) of 21.5 ± 0.27 g, a Weight [3] of 22.1 ± 0.2 g and a Weight (Day 2, 20 mg/kg oral gavage once a day) of 21.7 ± 0.29 g. The Weight (Day 2, 30 mg/kg oral gavage once a day) was 21.9 ± 0.17 g, the Weight (Day 3, 6 mg/kg oral gavage once a day) was 21.1 ± 0.3 g and the Weight [4] was 21.4 ± 0.32 g. It also gave a Weight (Day 3, 20 mg/kg oral gavage once a day) of 21.5 ± 0.33 g, a Weight (Day 3, 30 mg/kg oral gavage once a day) of 21.4 ± 0.34 g and a Weight (Day 4, 6 mg/kg oral gavage once a day) of 20.9 ± 0.47 g. It also gave a Weight [5] of 21.3 ± 0.46 g, a Weight (Day 4, 20 mg/kg oral gavage once a day) of 21.8 ± 0.34 g and a Weight (Day 4, 30 mg/kg oral gavage once a day) of 21.1 ± 0.4 g. The Weight (Day 5, 6 mg/kg oral gavage once a day) was 21.1 ± 0.25 g, the Weight [6] was 21.0 ± 0.6 g and the Weight (Day 5, 20 mg/kg oral gavage once a day) was 21.5 ± 0.33 g. For the same compound, the Weight (Day 5, 30 mg/kg oral gavage once a day) was 21.1 ± 0.39 g, the Weight (Day 6, 6 mg/kg oral gavage once a day) was 20.5 ± 0.25 g and the Weight [7] was 20.4 ± 0.45 g. The Weight (Day 6, 20 mg/kg oral gavage once a day) was 20.3 ± 0.48 g, the Weight (Day 6, 30 mg/kg oral gavage once a day) was 20.1 ± 0.58 g and the Total stool scores [14] was 5.6 ± 0.17. The Weight [14] was 19.2 ± 0.23 g, the Total stool scores [8] was 5.7 ± 0.22 and the Weight [8] was 19 ± 0.46 g. For the same compound, the Total stool scores [15] was 5.7 ± 0.21, the Weight [15] was 19 ± 0.46 g and the Total stool scores [16] was 5.4 ± 0.32. For the same compound, the Weight [16] was 19.5 ± 0.52 g, the Total stool scores [17] was 5.9 ± 0.11 and the Weight [17] was 18.1 ± 0.38 g. It also gave a Total stool scores [9] of 5.7 ± 0.22, a Weight [9] of 17.8 ± 0.4 g and a Total stool scores [18] of 5.9 ± 0.11. The Weight [18] was 17.4 ± 0.58 g, the Total stool scores [19] was 5.6 ± 0.23 and the Weight [19] was 18.4 ± 0.51 g. The Total stool scores [20] was 4.6 ± 0, the Weight [20] was 16.3 ± 0.33 g and the Total stool scores [10] was 4.8 ± 0.26. For the same compound, the Weight [10] was 16.2 ± 0.3 g, the Total stool scores [21] was 4.8 ± 0.31 and the Weight [21] was 16.5 ± 0.4 g. For the same compound, the Total stool scores [22] was 4.6 ± 0.39, the Weight [22] was 17.2 ± 0.48 g and the “Effect on colon atrophy” value (oral gavage for 8 consecutive days, 6-30 mg/kg) was “certain inhibitory effect on colon atrophy”.
